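96-well plates; 48 h exposure; 5 concentrations. Endpoints by linear interpolation between flanking doses. Not reached: highest tested concentration assigned. GI50 marks 50% less growth. TGI denotes the concentration required for complete inhibition of growth.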

Test systems include DU-145 prostate; NCI-H23 lung; TK-10 renal; NCI-H460 lung; HS 578T breast; RPMI-8226 leukemia; IGROV1 ovarian; SR leukemia.
Assay in all cases: DTP human tumour cell line panel, 48 h

Turning to `O=C1CSC(=S)N1c1ccc(F)cc1F`, the TGI is above 100 µM in the test with DU-145 prostate; above 100 µM in the test with NCI-H23 lung; above 100 µM in the test on TK-10 renal; above 100 µM with NCI-H460 lung; above 100 µM in the test on HS 578T breast; 66.4 µM in the test with RPMI-8226 leukemia. The TGI with IGROV1 ovarian is above 100 µM.

Take `COc1ccc(S(=O)(=O)N2CCN(C(=O)OCc3ccccc3)CC2C(=O)NO)cc1` (stereo unspecified): the GI50 with DU-145 prostate is 18.7 µM; with NCI-H23 lung, above 25 µM; in the test with TK-10 renal, 10.9 µM; in the test on NCI-H460 lung, above 25 µM; in the test with HS 578T breast, above 25 µM; in the test with IGROV1 ovarian, 4.09 µM. Further, the TGI in the test on DU-145 prostate, in the test on NCI-H23 lung, in the test with TK-10 renal, in the test with NCI-H460 lung, in the test with HS 578T breast and with IGROV1 ovarian was above 25 µM each time.

As to `CN(C)CCCNC(=O)c1cc(NC(=O)CCNC(=O)c2ccc3c(c2)C(=O)c2ccccc2C3=O)cn1C`, the GI50 was above 100 µM in the test with NCI-H23 lung; above 100 µM with TK-10 renal; 31 µM in the test with SR leukemia; above 100 µM in the test with NCI-H460 lung; above 100 µM with HS 578T breast; 48 µM with RPMI-8226 leukemia. In addition, the GI50 in the test with IGROV1 ovarian is above 100 µM. The TGI is above 100 µM in the test on NCI-H23 lung; above 100 µM in the test on TK-10 renal; 99.6 µM in the test with SR leukemia; above 100 µM with NCI-H460 lung; above 100 µM with HS 578T breast; above 100 µM in the test on RPMI-8226 leukemia. Further, the TGI with IGROV1 ovarian was above 100 µM.

For `CC(C)(C)C(=O)OCOP(=O)(OCOC(=O)C(C)(C)C)C1CCCN(OC(=O)c2ccccc2)C1=O` (stereo unspecified), the GI50 in the test with DU-145 prostate is 2.62 µM; in the test on NCI-H23 lung, 1.51 µM; in the test on TK-10 renal it was 2.16 µM; with NCI-H460 lung it was 1.11 µM; in the test with HS 578T breast, 0.71 µM; with RPMI-8226 leukemia, 0.605 µM. In addition, the GI50 in the test with IGROV1 ovarian is 0.657 µM. Besides, the TGI was above 100 µM with DU-145 prostate; 9.74 µM in the test with NCI-H23 lung; 23.2 µM in the test on TK-10 renal; 15.3 µM in the test on NCI-H460 lung; 38.1 µM in the test with HS 578T breast; 3.51 µM in the test on RPMI-8226 leukemia. Besides, the TGI with IGROV1 ovarian came to 3.08 µM.

For the molecule `Cc1cc(Cl)ccc1NC(=O)/C(Cl)=C(/Cl)C(=O)O`, the TGI in the test with DU-145 prostate is 61.4 µM; in the test with NCI-H23 lung it was 67.8 µM; in the test with TK-10 renal, 33.2 µM; in the test with SR leukemia, 36.4 µM; in the test with NCI-H460 lung it was above 100 µM; in the test with HS 578T breast it was 61.6 µM. The TGI in the test with RPMI-8226 leukemia is 70.5 µM.

For `CCOC(=O)C1c2[nH]c3ccccc3c2CCN1C(=O)c1ccco1` (stereo unspecified), the TGI in the test on DU-145 prostate, in the test with TK-10 renal, with SR leukemia, with HS 578T breast, in the test on RPMI-8226 leukemia and with IGROV1 ovarian was above 10 µM each time.

Take `O=C(N/N=C/c1coc2ccc(Cl)cc2c1=O)c1ccncc1`: the GI50 was above 100 µM in the test on DU-145 prostate; 38.8 µM with NCI-H23 lung; 17.2 µM with TK-10 renal; 68.2 µM in the test on NCI-H460 lung; 32.6 µM with HS 578T breast; 16.6 µM with RPMI-8226 leukemia. Moreover, the GI50 in the test on IGROV1 ovarian was 24.8 µM. The TGI with DU-145 prostate was above 100 µM; with NCI-H23 lung, above 100 µM; in the test on TK-10 renal, 52.5 µM; in the test with NCI-H460 lung, above 100 µM; with HS 578T breast, above 100 µM; in the test with RPMI-8226 leukemia, above 100 µM. In the test on IGROV1 ovarian, this molecule came in with a TGI above 100 µM.

For the molecule `CCCCCCCCCCCCOC1C(CNC(=O)C2OC3OC(C)(C)OC3C2NC(=O)CN2CCN(c3ccccn3)CC2)OC2OC(C)(C)OC21` (stereo unspecified), the GI50 was 1.68 µM in the test on DU-145 prostate; 4.16 µM in the test with NCI-H23 lung; 1.76 µM in the test on TK-10 renal; 1.77 µM with NCI-H460 lung; 1.9 µM in the test with HS 578T breast; 1.87 µM in the test with IGROV1 ovarian. Also, the TGI with DU-145 prostate is 3.04 µM; with NCI-H23 lung, 9.1 µM; with TK-10 renal it was 3.27 µM; with SR leukemia it was 1.86 µM; with NCI-H460 lung it was 3.38 µM; in the test with HS 578T breast, 4.69 µM. The molecule also gave a TGI with IGROV1 ovarian of 3.45 µM.

With `CCOc1cc(C=O)c2c(ccc3ccc(OC)c(OC)c32)c1OC`, the TGI in the test with DU-145 prostate, in the test with NCI-H23 lung, in the test on TK-10 renal, with NCI-H460 lung, in the test with HS 578T breast and in the test on RPMI-8226 leukemia was above 100 µM in each case. In the test with IGROV1 ovarian, this molecule showed a TGI above 100 µM.

As to `COC1OCC(OS(=O)(=O)c2ccc(C)cc2)C(OC(=O)c2ccccc2)C1OC(=O)c1ccccc1` (stereo unspecified), the GI50 was 19.7 µM with DU-145 prostate; above 100 µM in the test with NCI-H23 lung; above 100 µM in the test with TK-10 renal; 3.07 µM with SR leukemia; 3.87 µM in the test on NCI-H460 lung; 1.89 µM with HS 578T breast. The GI50 in the test with IGROV1 ovarian was 6.4 µM. Moreover, the concentration for total growth inhibition (TGI) was above 100 µM in the test on DU-145 prostate; above 100 µM in the test on NCI-H23 lung; above 100 µM with TK-10 renal; above 100 µM with SR leukemia; above 100 µM in the test with NCI-H460 lung; 27.4 µM with HS 578T breast. This molecule came in with a TGI in the test on IGROV1 ovarian above 100 µM.

Turning to `O=C(O)CN(CC(=O)O)Cc1cc2c(cc1O)Oc1cc(O)c(CN(CC(=O)O)CC(=O)O)cc1C21OC(=O)c2ccccc21`, the TGI in the test on DU-145 prostate, in the test on NCI-H23 lung, in the test on TK-10 renal, in the test on SR leukemia, with HS 578T breast and in the test on RPMI-8226 leukemia was above 100 µM throughout. The same molecule returned a TGI with IGROV1 ovarian above 100 µM.

As to `O=C(Nc1ccc(Cl)c(Cl)c1)C(=O)C(C1OC(=O)c2ccccc21)[N+](=O)[O-]` (stereo unspecified), the total growth inhibition concentration (TGI) with DU-145 prostate, in the test with NCI-H23 lung, in the test with TK-10 renal, in the test with SR leukemia, in the test on NCI-H460 lung and in the test on HS 578T breast was above 100 µM throughout. The molecule also yielded a TGI in the test with IGROV1 ovarian above 100 µM.

Regarding `C=CCCC(O)c1ccc(C(O)CCCCCCCCCCCC)o1` (stereo unspecified), the GI50 is 22.6 µM with DU-145 prostate; 19.3 µM with NCI-H23 lung; 16.4 µM with TK-10 renal; above 100 µM in the test with NCI-H460 lung; 24.2 µM with HS 578T breast; 27.1 µM in the test on RPMI-8226 leukemia. Moreover, the GI50 in the test with IGROV1 ovarian is 18.7 µM. Besides, the TGI was 46.9 µM in the test with DU-145 prostate; 34.7 µM in the test on NCI-H23 lung; 30.2 µM in the test on TK-10 renal; above 100 µM with NCI-H460 lung; 55.4 µM with HS 578T breast; above 100 µM in the test with RPMI-8226 leukemia. This molecule also gave a TGI in the test with IGROV1 ovarian of 43.2 µM.
